The source of these data is patent US10829452B2, “Histone methyltransferase inhibitors” (GLOBAL BLOOD THERAPEUTICS, INC., priority 2016, dated 2020).

The structures appear in SMILES notation. Counter-ions that a name gives are not always drawn.

The target in the experiment is T1, G9a (Homo sapiens, UniProt Q96KQ7).
T1 sequence (Q96KQ7 1-1210): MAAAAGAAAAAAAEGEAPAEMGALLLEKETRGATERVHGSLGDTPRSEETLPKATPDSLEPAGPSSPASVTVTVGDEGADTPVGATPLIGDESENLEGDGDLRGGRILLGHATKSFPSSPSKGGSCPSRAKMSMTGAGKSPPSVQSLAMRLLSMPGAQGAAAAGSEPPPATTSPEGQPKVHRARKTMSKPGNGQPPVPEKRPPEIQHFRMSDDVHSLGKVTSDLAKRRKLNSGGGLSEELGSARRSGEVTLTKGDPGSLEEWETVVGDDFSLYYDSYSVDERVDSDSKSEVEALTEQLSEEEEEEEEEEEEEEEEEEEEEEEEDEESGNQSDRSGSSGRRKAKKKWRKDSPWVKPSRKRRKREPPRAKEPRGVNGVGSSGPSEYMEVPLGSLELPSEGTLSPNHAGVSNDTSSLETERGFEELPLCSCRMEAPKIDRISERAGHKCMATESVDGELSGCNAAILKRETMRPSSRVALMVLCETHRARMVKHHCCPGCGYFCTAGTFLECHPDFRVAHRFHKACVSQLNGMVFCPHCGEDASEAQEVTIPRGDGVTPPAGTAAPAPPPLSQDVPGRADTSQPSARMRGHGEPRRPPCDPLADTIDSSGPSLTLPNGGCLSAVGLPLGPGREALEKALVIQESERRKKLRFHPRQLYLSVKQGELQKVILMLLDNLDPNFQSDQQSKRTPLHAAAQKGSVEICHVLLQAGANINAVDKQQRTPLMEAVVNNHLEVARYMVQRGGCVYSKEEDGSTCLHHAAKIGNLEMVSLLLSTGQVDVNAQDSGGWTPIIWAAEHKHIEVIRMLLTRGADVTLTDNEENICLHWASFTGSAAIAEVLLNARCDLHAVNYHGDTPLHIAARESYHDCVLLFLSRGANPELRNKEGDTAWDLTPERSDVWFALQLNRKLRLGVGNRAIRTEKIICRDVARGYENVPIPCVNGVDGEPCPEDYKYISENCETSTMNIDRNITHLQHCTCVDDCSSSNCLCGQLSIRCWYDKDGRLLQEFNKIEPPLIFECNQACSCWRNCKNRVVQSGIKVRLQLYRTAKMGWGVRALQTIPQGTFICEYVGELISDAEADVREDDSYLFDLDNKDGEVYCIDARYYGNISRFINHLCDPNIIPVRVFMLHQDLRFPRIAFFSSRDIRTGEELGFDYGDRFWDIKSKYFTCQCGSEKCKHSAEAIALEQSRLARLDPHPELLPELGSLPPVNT
Nature of the experiment: G9a AlphaLISA enzymatic activity assay. In kind it is biochemical. As to conditions: 0.15 nM G9a, 15 uM S-adenosyl-methionine, 100 nM biotinylated histone 3 peptide (1-21), 1 hour at room temperature; read-out: G9a in (uM) (IC50, concentration that produced 50% inhibition). The essentials:
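Human G9a (0.15 nM) methylated 100 nM biotinylated histone H3(1-21) peptide with 15 uM SAM in Tris-HCl pH9 buffer with NaCl, Tween-20 and DTT, 1 h at room temperature. H3K9me2 was detected by AlphaLISA acceptor/streptavidin donor beads (20 ug/mL each); IC50 from percent inhibition across compound dilutions.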
(In Alpha technology, singlet oxygen from a donor bead excites a nearby acceptor bead.)

As to `CC[C@H](C)Nc1nc2cc(OCCCN3CCCC3)c(OC)cc2c2c1CCC2` [Example 99, N-[(2S)-butan-2-yl]-8-methoxy-7-[3-(pyrrolidin-1-yl)propoxy]-1H,2H,3H-cyclopenta[c]quinolin-4-amine formate], the IC50 stood at 0.023 µM.
Take `CC[C@@H](C)Nc1nc2cc(OCCCN3CCCC3)c(OC)cc2c2c1CCC2` [Example 100, N-[(2R)-butan-2-yl]-8-methoxy-7-[3-(pyrrolidin-1-yl)propoxy]-1H,2H,3H-cyclopenta[c]quinolin-4-amine formate]: the IC50 was 0.047 µM.
With `COc1cc2c3c(c(NCC(C)(C)C)nc2cc1OCCCN1CCCC1)CCC3` [Example 101, N-(2,2-dimethylpropyl)-8-methoxy-7-[3-(pyrrolidin-1-yl)propoxy]-1H,2H,3H-cyclopenta[c]quinolin-4-amine formate], the IC50 stood at 0.07 µM.
In the case of `Cl.Cl.[2H]C(C)(C)Nc1nc2cc(OCCCN3CCCC3)c(OC)cc2c2c1CCC2` [Example 102, 8-methoxy-N-[(2-^2H)propan-2-yl]-7-[3-(pyrrolidin-1-yl)propoxy]-1H,2H,3H-cyclopenta[c]quinolin-4-amine hydrochloride], the IC50 was 0.013 µM.
Turning to `COc1cc2c3c(c(NCC(C)C)nc2cc1OCCCN1CCCC1)CCC3` [Example 103, 8-methoxy-N-(2-methylpropyl)-7-[3-(pyrrolidin-1-yl)propoxy]-1H,2H,3H-cyclopenta[c]quinolin-4-amine trifluoroacetate], the IC50 stood at 0.027 µM.
With `CCCNc1nc2cc(OCCCN3CCCC3)c(OC)cc2c2c1CCC2` [Example 104, 8-methoxy-N-propyl-7-[3-(pyrrolidin-1-yl)propoxy]-1H,2H,3H-cyclopenta[c]quinolin-4-amine trifluoroacetate] the figure was 0.02 µM; with `COc1cc2c3c(c(NC4CC4)nc2cc1OCCCN1CCCC1)CCC3` [Example 105, N-cyclopropyl-8-methoxy-7-[3-(pyrrolidin-1-yl)propoxy]-1H,2H,3H-cyclopenta[c]quinolin-4-amine trifluoroacetate], 0.021 µM; with `CCNc1nc2cc(OCCCN3CCCC3)c(OC)cc2c2c1CCC2` [Example 106, N-ethyl-8-methoxy-7-[3-(pyrrolidin-1-yl)propoxy]-1H,2H,3H-cyclopenta[c]quinolin-4-amine trifluoroacetate], 0.013 µM.
`COc1cc2c3c(c(NC4CCCCC4)nc2cc1OCCCN1CCCC1)CCC3` [Example 107, N-cyclohexyl-8-methoxy-7-[3-(pyrrolidin-1-yl)propoxy]-1H,2H,3H-cyclopenta[c]quinolin-4-amine trifluoroacetate]: the IC50 stood at 0.016 µM.
`COc1cc2c3c(c(NCC4CC4)nc2cc1OCCCN1CCCC1)CCC3` [Example 108, N-(cyclopropylmethyl)-8-methoxy-7-[3-(pyrrolidin-1-yl)propoxy]-1H,2H,3H-cyclopenta[c]quinolin-4-amine trifluoroacetate]: the IC50 was 0.037 µM.
On to `COc1cc2c3c(c(C4CCCC4)nc2cc1OCCCN1CCCC1)CCC3` [Example 109, 1-[3-({4-cyclopentyl-8-methoxy-1H,2H,3H-cyclopenta[c]quinolin-7-yl}oxy)propyl]pyrrolidine formate], for which the IC50 is 0.5 µM.
In the case of `COc1cc2c3c(c(C4CCCCC4)nc2cc1OCCCN1CCCC1)CCC3` [Example 110, 1-[3-({4-cyclohexyl-8-methoxy-1H,2H,3H-cyclopenta[c]quinolin-7-yl}oxy)propyl]pyrrolidine trifluoroacetate], the IC50 stood at 1.4 µM.
Take `COc1cc2c3c(c(-c4ccccc4)nc2cc1OCCCN1CCCC1)CCC3` [Example 111, 1-[3-({8-methoxy-4-phenyl-1H,2H,3H-cyclopenta[c]quinolin-7-yl}oxy)propyl]pyrrolidine formate]: the IC50 was 4.9 µM.
For the compound `COc1cc2c3c(c(NC(C)C)nc2cc1OCCCN1CCOCC1)CCC3` [Example 112, 8-methoxy-7-[3-(morpholin-4-yl)propoxy]-N-(propan-2-yl)-1H,2H,3H-cyclopenta[c]quinolin-4-amine trifluoroacetate], the IC50 was over 10 µM.
For `COc1cc2c3c(c(C4CCCC4)nc2cc1OCCCN1CCCC1)CC(C)(C)N3` [Example 113, 1-[3-({4-cyclopentyl-8-methoxy-2,2-dimethyl-1H,2H,3H-pyrrolo[3,2-c]quinolin-7-yl}oxy)propyl]pyrrolidine hydrochloride], the IC50 is 0.006 µM.
In the case of `COc1cc2c3c(c(-c4ccccc4)nc2cc1OCCCN1CCCC1)CC(C)(C)N3` [Example 114, 1-[3-({8-methoxy-2,2-dimethyl-4-phenyl-1H,2H,3H-pyrrolo[3,2-c]quinolin-7-yl}oxy)propyl]pyrrolidine formate], the IC50 was determined as 0.17 µM.
Take `COc1ccc(CNc2nc3cc(OCCCN4CCCC4)c(OC)cc3c3c2CCC3)c(OC)c1` [Example 115, N-[(2,4-dimethoxyphenyl)methyl]-8-methoxy-7-[3-(pyrrolidin-1-yl)propoxy]-1H,2H,3H-cyclopenta[c]quinolin-4-amine formate]: the IC50 was 0.009 µM.
Under `COc1cc2c3c(c(N)nc2cc1OCCCN1CCCC1)CCC3` [Example 116, 8-methoxy-7-[3-(pyrrolidin-1-yl)propoxy]-1H,2H,3H-cyclopenta[c]quinolin-4-amine formate] stands 0.006 µM; under `COc1ccc(CNc2nc3cc(OCCCN4CCCC4)c(OC)cc3c3c2CC(C)(C)C3)c(OC)c1` [Example 117, N-[(2,4-dimethoxyphenyl)methyl]-8-methoxy-2,2-dimethyl-7-[3-(pyrrolidin-1-yl)propoxy]-1H,2H,3H-cyclopenta[c]quinolin-4-amine formate], 0.36 µM.
As for `COc1cc2c3c(c(N)nc2cc1OCCCN1CCCC1)CC(C)(C)C3` [Example 118, 8-methoxy-2,2-dimethyl-7-[3-(pyrrolidin-1-yl)propoxy]-1H,2H,3H-cyclopenta[c]quinolin-4-amine formate], the IC50 stood at 0.018 µM.
`COc1cc2c3c(c(NCCC#N)nc2cc1OCCCN1CCCC1)CCC3` [Example 119, 3-({8-methoxy-7-[3-(pyrrolidin-1-yl)propoxy]-1H,2H,3H-cyclopenta[c]quinolin-4-yl}amino)propanenitrile formate]: the IC50 was determined as 0.11 µM.
In the case of `COc1cc2c3c(c(NCCSC)nc2cc1OCCCN1CCCC1)CCC3` [Example 120, 8-methoxy-N-[2-(methylsulfanyl)ethyl]-7-[3-(pyrrolidin-1-yl)propoxy]-1H,2H,3H-cyclopenta[c]quinolin-4-amine formate], the IC50 amounted to 0.075 µM.
As to `COc1cc2c3c(c(N[C@H]4CCCC[C@@H]4O)nc2cc1OCCCN1CCCC1)CCC3` [Example 122, (1S,2S)-2-({8-methoxy-7-[3-(pyrrolidin-1-yl)propoxy]-1H,2H,3H-cyclopenta[c]quinolin-4-yl}amino)cyclohexan-1-ol formate], the IC50 amounted to 0.043 µM.
With `COc1cc2c3c(c(N[C@H]4CC[C@H](O)CC4)nc2cc1OCCCN1CCCC1)CCC3` [Example 123, (1R,4R)-4-({8-methoxy-7-[3-(pyrrolidin-1-yl)propoxy]-1H,2H,3H-cyclopenta[c]quinolin-4-yl}amino)cyclohexan-1-ol formate], the IC50 is 0.17 µM.
Turning to `COc1cc2c3c(c(N[C@H]4CCC[C@@H]4O)nc2cc1OCCCN1CCCC1)CCC3` [Example 124, (1S,25)-2-({8-methoxy-7-[3-(pyrrolidin-1-yl)propoxy]-1H,2H,3H-cyclopenta[c]quinolin-4-yl}amino)cyclopentan-1-ol formate], the IC50 worked out at 4.7 µM.
As for `COc1cc2c3c(c(NC4CCC(O)C4)nc2cc1OCCCN1CCCC1)CCC3` (centres unmarked) [Example 126, 3-({8-methoxy-7-[3-(pyrrolidin-1-yl)propoxy]-1H,2H,3H-cyclopenta[c]quinolin-4-yl}amino)cyclopentan-1-ol formate], the IC50 worked out at 0.15 µM.
